US20070105810A1, “THERAPEUTICS” (priority 2003, published 2007)

How the values were obtained:
[1] = tested on: T cell receptor/CD3 complex mediated Ca2+ signalling; assay: Ca2+ signalling evoked by crosslinking of CD3 in rat encephalitogenic (MBP-specific) T cells; assay type: cell-based; settings: for TCR/CD3-induced Ca2+ signalling: T-lymphocytes, summary statement
Source text: Assuming that the NAADP/Ca^2+ signalling system plays an important role in T cell receptor/CD3 mediated activation, one would expect an inhibitory effect of BZ 52 on stimulation of rat encephalitogenic CD4-positive T cells via CD3 crosslinking. Thus, Fura2-loaded rat encephalitogenic CD4-positive T cells (resting) were stimulated by anti-CD3 followed by crosslinking of the primary antibody (FIG. 11, black line). A rapid high increase of [Ca^2+]i followed by a briefly elevated sustained phase was observed.
Fura2-loaded rat T cells were analyzed for [Ca^2+]i by fluorimetry. First arrow indicates addition of anti-CD3 mAb, second arrow indicates addition of a crosslinking secondary antibody. In case of BZ 52 cells were preincubated with BZ 52 (500 μM) for 60 min at RT.
Resting rat T cells were loaded with fura2/AM and suspension measurements were carried out as described in [4]. Arrows indicate time point of addition of antibody or Ca^2+ solution. A, Addition of anti-CD3-mAb (1st arrow) and a crosslinking, secondary antibody (2nd arrow). B, Bar chart summarizing data from A (transient Ca^2+ peak and Ca^2+ plateau; mean±s.e.m, n=8-9). C, Under Ca^2+ free conditions the anti-CD3-mAb (1st arrow) and secondary crosslinking antiserum (2nd arrow) were added; then [Ca^2+] was increased to 1 mM (3rd arrow). D, Bar chart summarizing data from C (transient Ca^2+ release peak, Ca^2+ influx peak, Ca^2+ influx plateau and the difference between Ca^2+ influx peak and plateau (=Overshoot); mean±s.e.m, n=6-7). The negative controls are without stimulation by anti-CD3-mAb.
[Ca^2+]i was measured by using the fluorescent indicator Fura2/AM. In brief, 10^7 cells were loaded with Fura2/AM, and fluorescence was determined in batches of 1.5×10^6 cells with an Hitachi F-2000 fluorimeter at excitation and emission wavelengths of 340 and 380 nm (exc.) and 505 nm (em.), respectively. Measurements were carried out at 20° C. At the end of each single measurement maximal and minimal ratios were determined by addition of Triton X-100 and EGTA/Tris.

[2] = tested on: NAADP/Ca2+ signalling in Jurkat T cells; assay: Ca2+ signalling evoked by microinjection of NAADP in Jurkat T cells; assay type: cell-based, human; settings: for NAADP-mediated Ca2+ signalling: T-lymphocytes, summary statement
Experimental: NAADP (final concentration 100 nM), IP3 (final concentration 4 μM), and BZ52 (final concentration 1 mM) were injected into single Jurkat T cells while [Ca^2+]i was analyzed by Ca^2+ imaging. Data are presented as mean±SEM (n=4 to 13).
Effect of NAADP-microinjection and co-injection with BZ52 (1 mM) on [Ca^2+]i in human Jurkat T-Lymphocytes. Upper panel: microinjection of 100 nM NAADP (arrow), middle panel: microinjection of the vehicle buffer (arrow), lower panel: co-microinjection of 100 nM NAADP plus 1 mM BZ52 (arrow).
The Jurkat T cells were loaded with fura-2/AM and kept in the dark at room temperature until use. Glass coverslips were coated first with BSA (5 mg/ml) and subsequently with poly-L-lysine (0.1 mg/ml). Small chamber slides consisting of a rubber O-ring were sealed on thin (0.1 mm) glass coverslips by silicon grease. Then, 60 μl buffer A containing 140 mM NaCl, 5 mM KCl, 1 mM MgSO4, 1 mM CaCl2, 1 mM NaH2PO4, 5.5 mM glucose, and 20 mM HEPES (pH 7.4), and 40 μl cell suspension (2*10^6 cells/ml) suspended in the same buffer were added into the small chamber and the coverslip was mounted on the stage of a fluorescence microscope (Leica DM IRE2).
Ratiometric Ca^2+ imaging was performed as described earlier. In brief, we used an Improvision imaging system (Heidelberg, Germany) built around the Leica microscope at 100-fold magnification. Illumination at 340 and 380 nm was carried out using a monochromator system (Polychromator IV, TILL Photonics, Graefelfing, Germany). Images were taken with a gray-scale CCD camera (type C4742-95-12ER; Hamamatsu, Enfield, United Kingdom; operated in 8-bit mode). The optimal relation of spatial to temporal resolution for the ratiometric measurements was obtained using a spatial resolution of 512×640 pixel, resulting in a pixel length of 129 nm/pixel (at 100-fold magnification). […]
Ratiometric Ca^2+ imaging—The cells were loaded with fura-2/AM and kept in the dark at room temperature until use. […] The coverslip with cells slightly attached to the BSA/poly-L-lysine coating was mounted on the stage of a fluorescence microscope (Leica DM IRE2). […]

| Structure (SMILES) | TCR/CD3-induced Ca2+ signalling [1] | Ca2+ signalling upon CD3-crosslinking ([1]; preincubation 60 min with 500 μM BZ52) | NAADP-mediated Ca2+ signalling [2] | effect of NAADP on Ca2+ signal (peak and plateau) ([2]; co-injection of BZ52 1 mM with NAADP 100 nM) | TCR/CD3 complex mediated Ca2+ signalling ([1]; MBP-specific rat T cell suspensions, standard and Ca2+-free/Ca2+-reintroduction protocol) | sustained Ca2+ signalling ([1]; both protocols, MBP-specific rat T cells) |
| --- | --- | --- | --- | --- | --- | --- |
| CCCCN(CCCC)C(=O)C[n+]1cccc(C(=O)O)c1 [BZ52, 3-Carboxy-1-dibutylcarbamoylmethyl-pyridinium] | efficiently inhibited | significantly inhibited | efficiently inhibited | almost completely antagonized |  |  |
| CCCCCCCCNC(=O)C[n+]1cccc(C(=O)O)c1.[Br-] [BZ194, 3-Carboxy-1-Octylcarbamoylmethyl-Pyridinium] | efficiently inhibited |  | efficiently inhibited |  | partially blocked | almost completely abolished |
